According to ChEMBL document CHEMBL3885881, “DrugMatrix”:

Organism: Rattus norvegicus
Experiment: DrugMatrix - Regimen: Daily Repeat
Type: toxicity, organism-based, Sprague-Dawley
Design: regimen Daily Repeat, gender Male, age 6-8 weeks
Conditions: in vivo, po, route oral GAVAGE, vehicle 100 % WATER; for URIC ACID / ALANINE AMINOTRANSFERASE / ALBUMIN / ALKALINE PHOSPHATASE / ASPARTATE AMINOTRANSFERASE / BLOOD UREA NITROGEN / CARBON DIOXIDE / CHLORIDE / CHOLESTEROL / CREATININE / GLUCOSE / LACTATE DEHYDROGENASE / LIPASE / PHOSPHORUS / POTASSIUM / SODIUM / TOTAL BILIRUBIN / TOTAL PROTEIN / CREATINE PHOSPHOKINASE: tissue Plasma; for ABSOLUTE BASOPHIL / ABSOLUTE EOSINOPHIL / ABSOLUTE LYMPHOCYTE / ABSOLUTE MONOCYTE / ABSOLUTE SEGMENTED NEUTROPHIL / BASOPHIL / EOSINOPHIL / ERYTHROCYTE COUNT / HEMATOCRIT / HEMOGLOBIN / LEUKOCYTE COUNT / LYMPHOCYTE / MEAN CORPUSCULAR HEMOGLOBIN / MEAN CORPUSCULAR HEMOGLOBIN CONCENTRATION / MEAN CORPUSCULAR VOLUME / MONOCYTE / NEUTROPHIL / NUCLEATED RED BLOOD CELLS / PLATELET COUNT: tissue Blood
[1] = 25 mg/kg, 120 h, dose level Low, time 5 day
[2] = 120 mg/kg, 72 h, dose level High, time 3 day
[3] = 120 mg/kg, 120 h, dose level High, time 5 day

`c1ccc([C@H]2CN3CCSC3=N2)cc1` [LEVAMISOLE] was tested, and the “URIC ACID” value (25 mg/kg, 72 h, dose level Low, time 3 day) was 1.67 mg/dL, the “ABSOLUTE BASOPHIL” value [1] was 0 CELLS/uL and the “ABSOLUTE EOSINOPHIL” value [1] was 174 CELLS/uL. For the same molecule, the “ABSOLUTE LYMPHOCYTE” value [1] was 12224.67 CELLS/uL, the “ABSOLUTE MONOCYTE” value [1] was 328 CELLS/uL and the “ABSOLUTE SEGMENTED NEUTROPHIL” value [1] was 1106.67 CELLS/uL. For the same molecule, the BASOPHIL [1] was 0%, the EOSINOPHIL [1] was 1.33% and the “ERYTHROCYTE COUNT” value [1] was 5.32 x10E6/uL. The HEMATOCRIT [1] was 33.6%, the HEMOGLOBIN [1] was 13.4 G/DL and the “LEUKOCYTE COUNT” value [1] was 13.83 x10E3/uL. For the same molecule, the LYMPHOCYTE [1] was 88.33%, the “MEAN CORPUSCULAR HEMOGLOBIN” value [1] was 25.2 pg and the “MEAN CORPUSCULAR HEMOGLOBIN CONCENTRATION” value [1] was 39.9 G/DL. For the same molecule, the “MEAN CORPUSCULAR VOLUME” value [1] was 63.2 fL, the MONOCYTE [1] was 2.33% and the NEUTROPHIL [1] was 8%. For the same molecule, the “NUCLEATED RED BLOOD CELLS” value [1] was 0 /100WBC, the “PLATELET COUNT” value [1] was 1156 x10E3/uL and the “ALANINE AMINOTRANSFERASE” value [1] was 50 u/L. For the same molecule, the ALBUMIN [1] was 4.2 G/DL, the “ALKALINE PHOSPHATASE” value [1] was 418 u/L and the “ASPARTATE AMINOTRANSFERASE” value [1] was 86.33 u/L. The “BLOOD UREA NITROGEN” value [1] was 17.67 mg/dL, the “CARBON DIOXIDE” value [1] was 27.33 mmol/L and the CHLORIDE [1] was 100.67 MEQ/L. For the same molecule, the CHOLESTEROL [1] was 69.67 mg/dL, the CREATININE [1] was 0.19 mg/dL and the GLUCOSE [1] was 136 mg/dL. The “LACTATE DEHYDROGENASE” value [1] was 423 u/L, the LIPASE [1] was 11 u/L and the PHOSPHORUS [1] was 11.83 mg/dL. The POTASSIUM [1] was 6.36 MEQ/L, the SODIUM [1] was 141.8 MEQ/L and the “TOTAL BILIRUBIN” value [1] was 0.23 mg/dL. For the same molecule, the “TOTAL PROTEIN” value [1] was 5.77 G/DL, the “URIC ACID” value [1] was 1.4 mg/dL and the “ABSOLUTE BASOPHIL” value [2] was 0 CELLS/uL. For the same molecule, the “ABSOLUTE EOSINOPHIL” value [2] was 0 CELLS/uL, the “ABSOLUTE LYMPHOCYTE” value [2] was 11350 CELLS/uL and the “ABSOLUTE MONOCYTE” value [2] was 85 CELLS/uL. For the same molecule, the “ABSOLUTE SEGMENTED NEUTROPHIL” value [2] was 565 CELLS/uL, the BASOPHIL [2] was 0% and the EOSINOPHIL [2] was 0%. For the same molecule, the “ERYTHROCYTE COUNT” value [2] was 7.38 x10E6/uL, the HEMATOCRIT [2] was 45.33% and the HEMOGLOBIN [2] was 17.77 G/DL. For the same molecule, the “LEUKOCYTE COUNT” value [2] was 12 x10E3/uL, the LYMPHOCYTE [2] was 94% and the “MEAN CORPUSCULAR HEMOGLOBIN” value [2] was 24.1 pg. For the same molecule, the “MEAN CORPUSCULAR HEMOGLOBIN CONCENTRATION” value [2] was 39.17 G/DL, the “MEAN CORPUSCULAR VOLUME” value [2] was 61.5 fL and the MONOCYTE [2] was 1%. The NEUTROPHIL [2] was 5%, the “NUCLEATED RED BLOOD CELLS” value [2] was 0 /100WBC and the “PLATELET COUNT” value [2] was 1087.67 x10E3/uL. The “ALANINE AMINOTRANSFERASE” value [2] was 57.33 u/L, the ALBUMIN [2] was 4.4 G/DL and the “ALKALINE PHOSPHATASE” value [2] was 373.67 u/L. The “ASPARTATE AMINOTRANSFERASE” value [2] was 80.33 u/L, the “BLOOD UREA NITROGEN” value [2] was 17.67 mg/dL and the “CARBON DIOXIDE” value [2] was 28.33 mmol/L. For the same molecule, the CHLORIDE [2] was 98 MEQ/L, the CHOLESTEROL [2] was 87.33 mg/dL and the “CREATINE PHOSPHOKINASE” value [2] was 366 u/L. For the same molecule, the CREATININE [2] was 0.2 mg/dL, the GLUCOSE [2] was 152 mg/dL and the “LACTATE DEHYDROGENASE” value [2] was 277.67 u/L. The LIPASE [2] was 12 u/L, the PHOSPHORUS [2] was 12.7 mg/dL and the POTASSIUM [2] was 6.52 MEQ/L. For the same molecule, the SODIUM [2] was 140.77 MEQ/L, the “TOTAL BILIRUBIN” value [2] was 0.13 mg/dL and the “TOTAL PROTEIN” value [2] was 6 G/DL. For the same molecule, the “URIC ACID” value [2] was 2.23 mg/dL, the “ABSOLUTE BASOPHIL” value [3] was 0 CELLS/uL and the “ABSOLUTE EOSINOPHIL” value [3] was 0 CELLS/uL. The “ABSOLUTE LYMPHOCYTE” value [3] was 13503 CELLS/uL, the “ABSOLUTE MONOCYTE” value [3] was 159 CELLS/uL and the “ABSOLUTE SEGMENTED NEUTROPHIL” value [3] was 804.67 CELLS/uL. For the same molecule, the BASOPHIL [3] was 0%, the EOSINOPHIL [3] was 0% and the “ERYTHROCYTE COUNT” value [3] was 5.98 x10E6/uL. The HEMATOCRIT [3] was 36.6%, the HEMOGLOBIN [3] was 14.47 G/DL and the “LEUKOCYTE COUNT” value [3] was 14.47 x10E3/uL. For the same molecule, the LYMPHOCYTE [3] was 93.33%, the “MEAN CORPUSCULAR HEMOGLOBIN” value [3] was 24.23 pg and the “MEAN CORPUSCULAR HEMOGLOBIN CONCENTRATION” value [3] was 39.53 G/DL. For the same molecule, the “MEAN CORPUSCULAR VOLUME” value [3] was 61.17 fL, the MONOCYTE [3] was 1% and the NEUTROPHIL [3] was 5.67%. For the same molecule, the “NUCLEATED RED BLOOD CELLS” value [3] was 0 /100WBC, the “PLATELET COUNT” value [3] was 1244.33 x10E3/uL and the “ALANINE AMINOTRANSFERASE” value [3] was 67.33 u/L. The ALBUMIN [3] was 4.1 G/DL, the “ALKALINE PHOSPHATASE” value [3] was 355.33 u/L and the “ASPARTATE AMINOTRANSFERASE” value [3] was 137.33 u/L. The “BLOOD UREA NITROGEN” value [3] was 19.33 mg/dL, the “CARBON DIOXIDE” value [3] was 20.33 mmol/L and the CHLORIDE [3] was 101 MEQ/L. For the same molecule, the CHOLESTEROL [3] was 84.33 mg/dL, the “CREATINE PHOSPHOKINASE” value [3] was 932 u/L and the CREATININE [3] was 0.23 mg/dL. For the same molecule, the GLUCOSE [3] was 177.33 mg/dL, the “LACTATE DEHYDROGENASE” value [3] was 504.67 u/L and the LIPASE [3] was 12.67 u/L. For the same molecule, the PHOSPHORUS [3] was 13.73 mg/dL, the POTASSIUM [3] was 6.59 MEQ/L and the SODIUM [3] was 143.9 MEQ/L. For the same molecule, the “TOTAL BILIRUBIN” value [3] was 0.27 mg/dL, the “TOTAL PROTEIN” value [3] was 5.67 G/DL and the “URIC ACID” value [3] was 3.13 mg/dL.
